PubChem BioAssay AID212 (DTP/NCI, 2004)
Where “and” joins values, the source holds several entries; their conditions need not be identical. Equal values may be shown once. Results filed as inconclusive are left out.

Tested on: BDF1 mice, colon carcinoma 38 sc, T/C %
Experiment: NCI In Vivo Anticancer Drug Screen. Data for tumor model Colon Carcinoma 38 (subcutaneous) in B6D2F1 (BDF1) mice
Outline: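 T/C readout: treated group (T) measurement over vehicle control group (C) measurement. Endpoint is survival or tumor size in mice bearing a transplanted tumor.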

[1] = endpoint: median tumor weight (est.), dose: 0.5 mg/kg/injection, schedule: Q07DX002 (ip), vehicle: water, higher = larger tumour
[2] = endpoint: median tumor weight (est.), dose: 200.0 mg/kg/injection, schedule: Q07DX002 (ip), vehicle: Klucel (hydroxypropylcellulose) (HPC), higher = larger tumour
[3] = endpoint: median tumor weight (est.), dose: 400.0 mg/kg/injection, schedule: Q07DX002 (ip), vehicle: Klucel (hydroxypropylcellulose) (HPC), higher = larger tumour
[4] = endpoint: median tumor weight (est.), dose: 12.5 mg/kg/injection, schedule: Q07DX002 (ip), vehicle: saline, higher = larger tumour
[5] = endpoint: median tumor weight (est.), dose: 100.0 mg/kg/injection, schedule: Q07DX002 (ip), vehicle: saline, higher = larger tumour
[6] = endpoint: median tumor weight (est.), dose: 200.0 mg/kg/injection, schedule: Q07DX002 (ip), vehicle: saline, higher = larger tumour

Cc1c2cc[n+](C)cc2c(C)c2c1[nH]c1ccc(O)cc12
T/C (endpoint: median tumor weight (est.), dose: 0.12 mg/kg/injection, schedule: Q07DX002 (ip), vehicle: water, higher = larger tumour): 119 % of control | T/C (endpoint: median tumor weight (est.), dose: 0.25 mg/kg/injection, schedule: Q07DX002 (ip), vehicle: water, higher = larger tumour): 62 % of control | T/C [1]: 69 % of control | T/C (endpoint: median tumor weight (est.), dose: 0.63 mg/kg/injection, schedule: Q07DX002 (ip), vehicle: water, higher = larger tumour): 67 % of control | T/C (endpoint: median tumor weight (est.), dose: 1.0 mg/kg/injection, schedule: Q07DX002 (ip), vehicle: water, higher = larger tumour): 123 % of control | T/C (endpoint: median tumor weight (est.), dose: 1.25 mg/kg/injection, schedule: Q07DX002 (ip), vehicle: water, higher = larger tumour): 52 % of control | T/C (endpoint: median tumor weight (est.), dose: 1.5 mg/kg/injection, schedule: Q07DX002 (ip), vehicle: water, higher = larger tumour): 116 % of control | T/C (endpoint: median tumor weight (est.), dose: 2.5 mg/kg/injection, schedule: Q07DX002 (ip), vehicle: water, higher = larger tumour): 72 % of control | T/C (endpoint: median tumor weight (est.), dose: 3.0 mg/kg/injection, schedule: Q07DX002 (ip), vehicle: water, higher = larger tumour): 122 % of control | T/C (endpoint: median tumor weight (est.), dose: 4.0 mg/kg/injection, schedule: Q07DX002 (ip), vehicle: water, higher = larger tumour): 70 % of control | T/C (endpoint: median tumor weight (est.), dose: 5.0 mg/kg/injection, schedule: Q07DX002 (ip), vehicle: water, higher = larger tumour): 71 % of control

O=C(O)Cc1cc(O)cc2c(=O)cc(-c3ccccc3)oc12
T/C (endpoint: median tumor weight (est.), dose: 100.0 mg/kg/injection, schedule: Q07DX002 (ip), vehicle: Klucel (hydroxypropylcellulose) (HPC), higher = larger tumour): 52 % of control | T/C [2]: 63 % of control | T/C [3]: 103 % of control

CC[C@H]1CN2CCc3cc(OC)c(OC)cc3[C@@H]2C[C@@H]1C[C@H]1NCCc2cc(OC)c(OC)cc21
T/C (endpoint: median tumor weight (est.), dose: 1.75 mg/kg/injection, schedule: Q07DX002 (ip), vehicle: saline, higher = larger tumour): 57 % of control | T/C (endpoint: median tumor weight (est.), dose: 3.5 mg/kg/injection, schedule: Q07DX002 (ip), vehicle: saline, higher = larger tumour): 74 % of control | T/C (endpoint: median tumor weight (est.), dose: 7.0 mg/kg/injection, schedule: Q07DX002 (ip), vehicle: saline, higher = larger tumour): 84 % of control | T/C (endpoint: median tumor weight (est.), dose: 14.0 mg/kg/injection, schedule: Q07DX002 (ip), vehicle: saline, higher = larger tumour): 89 % of control | T/C (endpoint: median tumor weight (est.), dose: 28.0 mg/kg/injection, schedule: Q07DX002 (ip), vehicle: saline, higher = larger tumour): 74 % of control

Nc1ccn([C@@H](C=O)O[C@@H](C=O)CO)c(=O)n1
T/C [4]: 99 % of control | T/C (endpoint: median tumor weight (est.), dose: 25.0 mg/kg/injection, schedule: Q07DX002 (ip), vehicle: saline, higher = larger tumour): 71 % of control | T/C (endpoint: median tumor weight (est.), dose: 50.0 mg/kg/injection, schedule: Q07DX002 (ip), vehicle: saline, higher = larger tumour): 58 % of control | T/C [5]: 86 % of control | T/C [6]: 73 % of control

C=CC(=O)NCNC(=O)C=C
T/C [4]: 164 % of control | T/C [5]: 100 % of control | T/C [6]: 89 % of control and 97 % of control | T/C (endpoint: median tumor weight (est.), dose: 400.0 mg/kg/injection, schedule: Q07DX002 (ip), vehicle: saline, higher = larger tumour): 35 % of control

CNC(=O)/C=C/C1=CN2C(=O)c3ccc(C)c(O)c3NC(OC)C2C1 (centres undefined)
T/C (endpoint: median tumor weight (est.), dose: 0.03 mg/kg/injection, schedule: Q07DX002 (ip), vehicle: saline, higher = larger tumour): 119 % of control | T/C (endpoint: median tumor weight (est.), dose: 0.06 mg/kg/injection, schedule: Q07DX002 (ip), vehicle: saline, higher = larger tumour): 109 % of control | T/C (endpoint: median tumor weight (est.), dose: 0.25 mg/kg/injection, schedule: Q07DX002 (ip), vehicle: saline, higher = larger tumour): 103 % of control | T/C (endpoint: median tumor weight (est.), dose: 0.5 mg/kg/injection, schedule: Q07DX002 (ip), vehicle: saline, higher = larger tumour): 122 % of control

C[C@]12CCC(=O)C=C1CC[C@@H]1[C@@H]2[C@@H](O)C[C@@]2(C)[C@H]1CC[C@]2(O)C(=O)CO
T/C (endpoint: median tumor weight (est.), dose: 40.0 mg/kg/injection, schedule: Q07DX003 (ip), vehicle: Klucel (hydroxypropylcellulose) (HPC), higher = larger tumour): 73 % of control | T/C (endpoint: median tumor weight (est.), dose: 80.0 mg/kg/injection, schedule: Q07DX003 (ip), vehicle: Klucel (hydroxypropylcellulose) (HPC), higher = larger tumour): 76 % of control | T/C (endpoint: median tumor weight (est.), dose: 160.0 mg/kg/injection, schedule: Q07DX003 (ip), vehicle: Klucel (hydroxypropylcellulose) (HPC), higher = larger tumour): 123 % of control and 104 % of control | T/C [2]: 63 % of control | T/C (endpoint: median tumor weight (est.), dose: 320.0 mg/kg/injection, schedule: Q07DX003 (ip), vehicle: Klucel (hydroxypropylcellulose) (HPC), higher = larger tumour): 118 % of control | T/C [3]: 74 % of control | T/C (endpoint: median tumor weight (est.), dose: 640.0 mg/kg/injection, schedule: Q07DX003 (ip), vehicle: Klucel (hydroxypropylcellulose) (HPC), higher = larger tumour): 79 % of control and 103 % of control | T/C (endpoint: median tumor weight (est.), dose: 800.0 mg/kg/injection, schedule: Q07DX002 (ip), vehicle: Klucel (hydroxypropylcellulose) (HPC), higher = larger tumour): 93 % of control | T/C (endpoint: median tumor weight (est.), dose: 800.0 mg/kg/injection, schedule: Q07DX003 (ip), vehicle: Klucel (hydroxypropylcellulose) (HPC), higher = larger tumour): 57 % of control | T/C (endpoint: median tumor weight (est.), dose: 1200.0 mg/kg/injection, schedule: Q07DX002 (ip), vehicle: Klucel (hydroxypropylcellulose) (HPC), higher = larger tumour): 70 % of control

CN=S(=O)(OCCCCCOS(=O)(=NC)c1ccc(C)cc1)c1ccc(C)cc1 (centres undefined)
T/C (endpoint: median tumor weight (est.), dose: 50.0 mg/kg/injection, schedule: Q07DX002 (ip), vehicle: saline with Tween-80, higher = larger tumour): 71 % of control and 94 % of control | T/C (endpoint: median tumor weight (est.), dose: 100.0 mg/kg/injection, schedule: Q07DX002 (ip), vehicle: saline with Tween-80, higher = larger tumour): 65 % of control and 89 % of control | T/C (endpoint: median tumor weight (est.), dose: 200.0 mg/kg/injection, schedule: Q07DX002 (ip), vehicle: saline with Tween-80, higher = larger tumour): 96 % of control | T/C (endpoint: median tumor weight (est.), dose: 400.0 mg/kg/injection, schedule: Q07DX002 (ip), vehicle: saline with Tween-80, higher = larger tumour): 61 % of control

O=C1c2c(O)ccc(O)c2C(=O)c2c(NCCNCCO)ccc(NCCNCCO)c21
T/C (endpoint: median survival time, dose: 1.0 mg/kg/injection, schedule: Q04DX004 (ip), vehicle: acid diluted with saline, higher = longer survival): 96 % of control | T/C (endpoint: median survival time, dose: 2.3 mg/kg/injection, schedule: Q07DX004 (iv), vehicle: water, higher = longer survival): 153 % of control | T/C (endpoint: median survival time, dose: 3.7 mg/kg/injection, schedule: Q07DX004 (iv), vehicle: water, higher = longer survival): 176 % of control | T/C (endpoint: median survival time, dose: 4.0 mg/kg/injection, schedule: Q04DX004 (ip), vehicle: acid diluted with saline, higher = longer survival): 117 % of control | T/C (endpoint: median survival time, dose: 6.0 mg/kg/injection, schedule: Q07DX004 (iv), vehicle: water, higher = longer survival): 199 % of control | T/C [1]: 92 % of control and 100 % of control and 102 % of control | T/C (endpoint: median tumor weight (est.), dose: 1.0 mg/kg/injection, schedule: Q07DX002 (ip), vehicle: acid diluted with saline, higher = larger tumour): 76 % of control | T/C (endpoint: median tumor weight (est.), dose: 2.0 mg/kg/injection, schedule: Q07DX002 (ip), vehicle: acid diluted with saline, higher = larger tumour): 49 % of control | T/C (endpoint: median tumor weight (est.), dose: 3.0 mg/kg/injection, schedule: Q07DX003 (ip), vehicle: saline with Tween-80, higher = larger tumour): 72 % of control | T/C (endpoint: median tumor weight (est.), dose: 3.0 mg/kg/injection, schedule: Q07DX003 (iv), vehicle: acid diluted with saline, higher = larger tumour): 11 % of control | T/C (endpoint: median tumor weight (est.), dose: 4.0 mg/kg/injection, schedule: Q07DX002 (ip), vehicle: acid diluted with saline, higher = larger tumour): 55 % of control

CC(O)CCC(=O)c1ccoc1 (centres undefined)
T/C (endpoint: median tumor weight (est.), dose: 0.63 mg/kg/injection, schedule: Q07DX002 (ip), vehicle: saline, higher = larger tumour): 150 % of control | T/C (endpoint: median tumor weight (est.), dose: 1.25 mg/kg/injection, schedule: Q03HX006 (ip), vehicle: saline, higher = larger tumour): 42 % of control | T/C (endpoint: median tumor weight (est.), dose: 2.5 mg/kg/injection, schedule: Q03HX006 (ip), vehicle: saline, higher = larger tumour): 64 % of control | T/C (endpoint: median tumor weight (est.), dose: 2.5 mg/kg/injection, schedule: Q07DX002 (ip), vehicle: saline, higher = larger tumour): 166 % of control | T/C (endpoint: median tumor weight (est.), dose: 5.0 mg/kg/injection, schedule: Q03HX006 (ip), vehicle: saline, higher = larger tumour): 58 % of control | T/C (endpoint: median tumor weight (est.), dose: 5.0 mg/kg/injection, schedule: Q07DX002 (ip), vehicle: saline, higher = larger tumour): 150 % of control | T/C (endpoint: median tumor weight (est.), dose: 10.0 mg/kg/injection, schedule: Q07DX002 (ip), vehicle: saline, higher = larger tumour): 185 % of control
